Experimental data from patent US20230372232A1, “ORAL CARE COMPOSITION COMPRISING SWEET POTATO-DERIVED POTATO SYRUP OR SUPERNATANT OF POTATO SYRUP” (KARAIMO NOJYO CO., LTD., priority 2020, published 2023).

How the values were obtained:
Streptococcus mutans [1] = test: Tooth plaque formation inhibition, crystal violet A570 (Test Examples 3 and 4); format: cell-based; details: 1% concentration sucrose (sample 8); BHI medium, 37° C., 48 hours
Procedure: A basic sample (a sample 8) was produced by impregnating 1% concentration sucrose (white sugar) in a BHI medium of twice the normal concentration and adding 0.1 mL of Streptococcus mutans liquid (approximately 1000 bacterial bodies) thereto. Next, another sample (a sample 9) in which the sucrose (white sugar) was not at all impregnated in the basic sample (the sample 8) was produced. There were also individually produced a sample (10) in which 10% of the potato syrup of Example 1-A was added instead of the 1% concentration sucrose (white sugar) to the basic sample (the sample 8), a sample (11) in which 10% of the potato syrup of Example 1-B was added instead of the 1% concentration sucrose (white sugar) to the basic sample (the sample 8), and a sample (12) in which 10% of the potato syrup of Example 1-C was added instead of the 1% concentration sucrose (white sugar) to the basic sample (the sample 8). The respective samples were subject to a culture process at 37° C. for 48 hours. […] Then, the pigment was eluted with 0.2 mL of 99.5% ethanol, and the absorbance (570 nm) was measured. Based on the results, the plaque (tooth plaque) formation inhibition rates (%) were calculated. The results are shown in FIG. 3. plaque formation inhibition rate (%)=[A570(no sucrose added)−A570 (sample added)]/A570(no sucrose added)×100 A570: absorbance of crystal violet eluted with ethanol at 570 nm. […]

Streptococcus mutans [2] = test: Tooth plaque formation inhibition by potato syrup with malt, crystal violet A570 (Test Example 6); format: cell-based; details: 1% concentration sucrose; BHI medium, 37° C., 48 hours
Procedure: A basic sample was produced by impregnating 1% concentration sucrose (white sugar) in a BHI medium and adding 0.1 mL of Streptococcus mutans liquid (approximately 1000 bacterial bodies) thereto. Next, another additive-free sample in which the sucrose (white sugar) was not at all impregnated in the basic sample was produced. There were also individually produced a sample in which 10% of the potato syrup with malt of Example 3 was added instead of the 1% concentration sucrose (white sugar) to the basic sample and a sample in which 10% of the potato syrup of Example 1-B was added instead of the 1% concentration sucrose (white sugar) to the basic sample. The respective samples were subject to a culture process at 37° C. for 48 hours. Afterwards, the supernatant liquids of the culture fluids were discarded, and then, the respective samples were washed twice with 0.2 mL of distilled water. Afterwards, 0.2 mL each of 0.1% crystal violet were added to each of the samples, a stir staining operation was performed for 20 minutes, and then, the staining fluids were discarded. The residues were washed twice with 0.2 mL of distilled water. Then, the pigment was eluted with 0.2 mL of 99.5% ethanol and the absorbance (570 nm) was measured. Based on the results, the plaque (tooth plaque) formation inhibition rates (%) were calculated.

SMILES: OC[C@H]1O[C@@](CO)(O[C@H]2O[C@H](CO)[C@@H](O)[C@H](O)[C@H]2O)[C@@H](O)[C@@H]1O [sucrose]
- plaque (tooth plaque) formation (Streptococcus mutans [1]): the plaque (tooth plaque) rapidly grew
- plaque (tooth plaque) formation (Streptococcus mutans [2]): the plaque (tooth plaque) rapidly grew
